Test results taken from patent EP2481744A1, “Aromatic bis-phosphoramidate additives as flame retardants for polymers” (EMPA Eidgenössische Materialprüfungs- und Forschungsanstalt, priority 2011, dated 2012).
Values after ≈ are worked out from the molar mass of the structure shown. Read-outs that look alike come from different tables or passages of the source.

Legend:
[1] = Solubility in deionized water (shaking flask, phosphorus content by ICP-OES); conditions: 0.5 gm in 50 ml deionized water, 21 °C, 16 hrs
[2] = deionized water, 16 h

CC(C)OP(=O)(Nc1ccc(NP(=O)(OC(C)C)OC(C)C)cc1)OC(C)C [p-PAPTiPE, Phosphoramidic acid, 1,4-phenylenebis-, tetra isopropyl ester]
Solubility [1]: 56 µg/mL (≈ 128 µM)

CCOP(=O)(Nc1ccc(NP(=O)(OCC)OCC)cc1)OCC [p-PAPTEE, Phosphoramidic acid, 1,4-phenylenebis-, tetraethyl ester]
Solubility [2]: 47 µg/mL (≈ 124 µM)
